{"source": "patent US9617271B2", "about": "“Triazolo compounds” (Hoffmann-La Roche Inc., priority 2012, dated 2017)", "data": [{"target": "human PDE10A (Homo sapiens (Human), UniProt Q9Y233)", "sequence (Q9Y233 other isoform, or with tags, fused parts or gaps)": "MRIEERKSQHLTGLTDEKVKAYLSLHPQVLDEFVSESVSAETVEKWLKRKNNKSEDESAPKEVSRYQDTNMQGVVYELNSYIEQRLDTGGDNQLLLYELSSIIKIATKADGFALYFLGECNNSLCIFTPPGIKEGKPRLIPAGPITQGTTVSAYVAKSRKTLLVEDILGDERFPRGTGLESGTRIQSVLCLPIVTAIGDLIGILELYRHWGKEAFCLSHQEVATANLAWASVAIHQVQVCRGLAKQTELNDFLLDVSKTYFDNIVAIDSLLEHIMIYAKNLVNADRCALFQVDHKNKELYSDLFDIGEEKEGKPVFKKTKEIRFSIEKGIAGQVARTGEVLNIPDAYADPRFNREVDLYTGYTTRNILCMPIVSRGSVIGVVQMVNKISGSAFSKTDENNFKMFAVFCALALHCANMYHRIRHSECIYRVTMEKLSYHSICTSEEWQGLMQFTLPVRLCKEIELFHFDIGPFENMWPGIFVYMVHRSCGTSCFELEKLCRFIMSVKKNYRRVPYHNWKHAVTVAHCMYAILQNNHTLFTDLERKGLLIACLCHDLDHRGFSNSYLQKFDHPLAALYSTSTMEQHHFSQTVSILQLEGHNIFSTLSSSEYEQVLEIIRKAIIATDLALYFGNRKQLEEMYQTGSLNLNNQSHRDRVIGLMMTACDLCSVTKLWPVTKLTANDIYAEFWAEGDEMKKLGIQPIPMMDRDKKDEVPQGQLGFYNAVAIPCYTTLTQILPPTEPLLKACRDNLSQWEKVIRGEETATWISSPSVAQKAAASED", "assay": "human PDE10A full length assay ([3H]-cGMP SPA)", "format": "biochemical", "settings": "human PDE10A full length enzyme, 50 nM cGMP + 50 nM [3H]-cGMP, 20 minutes at room temperature; read-out: PDE10A inhibition IC50", "protocol": "The human PDE10A full length assay was performed in 96-well micro titer plates. The reaction mixture of 50 μl contained 20 mM HEPES pH=7.5/10 mM MgCl2/0.05 mg/ml BSA (Sigma cat. #A-7906), 50 nM cGMP (Sigma, cat. #G6129) and 50 nM [3H]-cGMP (GE Healthcare, cat. #TRK392 S.A. 13.2 Ci/mmol), 3.75 ng/well PDE10A enzyme (Enzo Life Science, Lausen, Switzerland cat #SE-534) with or without a specific test compound. A range of concentrations of the potential inhibitor was used to generate data for calculating the concentration of inhibitor resulting in 50% of the effect (e.g. IC50, the concentration of the competitor inhibiting PDE10A activity by 50%). Non-specific activity was tested without the enzyme. The reaction was initiated by the addition of the substrate solution (cGMP and [3H]-cGMP) and allowed to progress for 20 minutes at room temperature. The reaction was terminated by adding 25 μl of YSi-SPA scintillation beads (GE Healthcare, cat. #RPNQ0150) in 18 mM zinc sulphate solution (stop reagent). After 1 h under shaking, the plate was centrifuged one minute at 170 g to allow beads to settle. Afterwards, radioactive counts were measured on a Perkin Elmer TopCount Scintillation plate reader.", "units": {"IC50": "nM"}, "values": [{"molecule": "Cc1c(C(F)(F)F)nc2c(OCC(F)(F)F)cc(CCc3nc(N4CCCC4)nn3C)nn12", "note": "[Example 63, 3-Methyl-6-(2-(1-methyl-3-(pyrrolidin-1-yl)-1H-1,2,4-triazol-5-yl)ethyl)-8-(2,2,2-trifluoroethoxy)-2-(trifluoromethyl)imidazo[1,2-b]pyridazine]", "IC50": 9.4}, {"molecule": "Cc1c(Cl)nc2ccc(CCc3nc(N4CCCC4)nn3C)nn12", "note": "[Example 64, 2-Chloro-3-methyl-6-(2-(1-methyl-3-(pyrrolidin-1-yl)-1H-1,2,4-triazol-5-yl)ethyl)imidazo[1,2-b]pyridazine]", "IC50": 5.5}, {"molecule": "Cc1nc2ccc(C#Cc3nc(N4CCCC4)nn3C)nn2c1Cl", "note": "[Example 65, 3-Chloro-2-methyl-6-((1-methyl-3-(pyrrolidin-1-yl)-1H-1,2,4-triazol-5-yl)ethynyl)imidazo[1,2-b]pyridazine]", "IC50": 2.5}, {"molecule": "Cc1nc2ccc(CCc3nc(N4CCCC4)nn3C)nn2c1Cl", "note": "[Example 66, 3-Chloro-2-methyl-6-(2-(1-methyl-3-(pyrrolidin-1-yl)-1H-1,2,4-triazol-5-yl)ethyl)imidazo[1,2-b]pyridazine]", "IC50": 14.5}, {"molecule": "Cc1cn2nc(C#Cc3nc(N4CCCC4)nn3C)ccc2n1", "note": "[Example 67, 2-Methyl-6-((1-methyl-3-(pyrrolidin-1-yl)-1H-1,2,4-triazol-5-yl)ethynyl)imidazo[1,2-b]pyridazine]", "IC50": 10.2}, {"molecule": "Cc1cn2nc(CCc3nc(N4CCCC4)nn3C)ccc2n1", "note": "[Example 68, 2-Methyl-6-(2-(1-methyl-3-(pyrrolidin-1-yl)-1H-1,2,4-triazol-5-yl)ethyl)imidazo[1,2-b]pyridazine]", "IC50": 146}, {"molecule": "CNC(=O)c1cc(C#Cc2nc(N3CCCC3)nn2C)nn2c(C)c(C(F)(F)F)nc12", "note": "[Example 69, N,3-Dimethyl-6-((1-methyl-3-(pyrrolidin-1-yl)-1H-1,2,4-triazol-5-yl)ethynyl)-2-(trifluoromethyl)imidazo[1,2-b]pyridazine-8-carboxamide]", "IC50": 2.1}, {"molecule": "CNC(=O)c1cc(CCc2nc(N3CCCC3)nn2C)nn2c(C)c(C(F)(F)F)nc12", "note": "[Example 70, N,3-dimethyl-6-(2-(1-methyl-3-(pyrrolidin-1-yl)-1H-1,2,4-triazol-5-yl)ethyl)-2-(trifluoromethyl)imidazo[1,2-b]pyridazine-8-carboxamide]", "IC50": 13.7}, {"molecule": "Cc1c(C(F)(F)F)nn2ccc(C#Cc3nc(N4CCCC4)nn3C)nc12", "note": "[Example 71, 3-Methyl-5-[2-(2-methyl-5-pyrrolidin-1-yl-1,2,4-triazol-3-yl)ethynyl]-2-(trifluoromethyl)pyrazolo[1,5-a]pyrimidine]", "IC50": 8.7}, {"molecule": "Cc1c(C(F)(F)F)nn2ccc(CCc3nc(N4CCCC4)nn3C)nc12", "note": "[Example 72, 3-methyl-5-(2-(1-methyl-3-(pyrrolidin-1-yl)-1H-1,2,4-triazol-5-yl)ethyl)-2-(trifluoromethyl)pyrazolo[1,5-a]pyrimidine]", "IC50": 32.9}, {"molecule": "N-Ethyl-6,7-dimethyl-2-(2-(1-methyl-3-(pyrrolidin-1-yl)-1H-1,2,4-triazol-5-yl)ethyl)-imidazo[1,2-f][1,2,4]triazin-4-amine [Example 32]", "IC50": 6}, {"molecule": "N-Ethyl-N,6,7-trimethyl-2-(2-(1-methyl-3-(pyrrolidin-1-yl)-1H-1,2,4-triazol-5-yl)ethyl)imidazo[1,2-f][1,2,4]triazin-4-amine [Example 34]", "IC50": 5}]}]}
